Test results reported in ChEMBL document CHEMBL1201862, “PubChem BioAssay data set” (2004).
Active and inactive are the calls of the source.

What was measured:
[1] = Luminescence Cell-Based Dose Response HTS to Identify Inhibitors of 5'UTR Stem-Loop Driven Prion Protein mRNA Translation in H4 Neuroglioblastoma Cells. [Related pubchem assays: 1827 (Project Summary), 1813 (Primary HTS)]; format: functional
[2] = inhibitors of SNCA 5'UTR-driven reporter translation, confirmation, H4 neuroglioma cells, luminescence (AID 1988); format: functional, cell-based
[3] = inhibitors of firefly luciferase expression or activity, dose response, H4 neuroglioma cells, luminescence (AID 1990); format: functional, cell-based
Paired box protein Pax-8 = Paired box protein Pax-8 (Homo sapiens, UniProt Q06710); test: inhibitors of PAX8-driven TPO luciferase reporter, dose response, RMG-I cells, cherry-pick (AID 687027); format: functional, cell-based;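 also: luciferase reporter driven by Pax8 target thyroperoxidase promoter measured by SteadyGlo luminescence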
[4] = target: T1, Ubiquitin-conjugating enzyme E2 N (Homo sapiens, UniProt P61088); format: functional;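 also: Dose-response confirmation in a TR-FRET assay detecting UBC13-driven polyubiquitin chain formation, inhibition measured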
T1 sequence (P61088 whole entry): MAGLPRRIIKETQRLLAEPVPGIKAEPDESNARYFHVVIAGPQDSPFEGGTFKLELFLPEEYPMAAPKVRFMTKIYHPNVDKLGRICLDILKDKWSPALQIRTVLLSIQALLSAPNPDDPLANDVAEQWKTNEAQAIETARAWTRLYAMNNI

[5] = Shn3 3'UTR reporter inhibitors, dose response, cell-based, Clone20 osteoblasts, firefly luciferase, cherry-picked (AID 624132); format: functional;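 also: firefly luciferase luminescence from reporter carrying the Shn3 3'UTR in osteoblasts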
[6] = target: T2, Heat shock factor protein 1 (Mus musculus, UniProt P38532); test: HSF1 potentiators in luciferase reporter cells, confirmation, cell-based, NIH3T3, luminescence, dose retest (AID 435004); format: functional;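 also: stress induced by proteasome inhibitor MG132 added 30 min after compound; luciferase reporter driven by HSF1 response element in NIH3T3 cells; actives raise luminescence as potentiators of the MG132 stress response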
T2 sequence (P38532 whole entry): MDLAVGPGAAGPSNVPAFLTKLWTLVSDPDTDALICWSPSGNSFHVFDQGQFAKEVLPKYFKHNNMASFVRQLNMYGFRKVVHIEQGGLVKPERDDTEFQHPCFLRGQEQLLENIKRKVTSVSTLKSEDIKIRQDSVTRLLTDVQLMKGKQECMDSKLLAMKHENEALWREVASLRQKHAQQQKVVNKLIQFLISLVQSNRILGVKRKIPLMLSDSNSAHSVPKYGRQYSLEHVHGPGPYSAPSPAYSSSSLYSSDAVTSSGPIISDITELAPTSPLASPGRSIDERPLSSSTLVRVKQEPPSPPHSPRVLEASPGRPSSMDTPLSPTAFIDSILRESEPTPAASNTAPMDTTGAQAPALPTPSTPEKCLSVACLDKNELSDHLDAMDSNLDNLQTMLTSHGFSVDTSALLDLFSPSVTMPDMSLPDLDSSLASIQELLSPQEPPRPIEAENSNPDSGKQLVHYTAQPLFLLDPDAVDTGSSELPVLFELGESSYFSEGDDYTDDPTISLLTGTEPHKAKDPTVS

[7] = HepG2 cell cytotoxicity, dose response, cytotoxicity control for Shn3 inhibitor project, CellTiter-Glo, cherry-picked (AID 624134); format: functional, cell-based
[8] = HEp-2 cell cytotoxicity, dose response, cytotoxicity control for RSV inhibitor project, HTS (AID 2410); format: functional; details: human respiratory syncytial virus
[9] = control 3'UTR Renilla luciferase suppression, dose response, counter-screen for Shn3 inhibitor project, cell-based, Clone20-Shn3RL, cherry-picked (AID 624133); format: functional
Cytochrome P450 3A4 = Cytochrome P450 3A4 (Homo sapiens, UniProt P08684);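 also: CYP3A4 tested as one member of a cytochrome P450 panel screen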
[10] = target: Induced myeloid leukemia cell differentiation protein Mcl-1 (Homo sapiens, UniProt Q07820); format: functional
[11] = P. falciparum Dd2 growth inhibitors, dose response, SYBR Green, cherry-picked samples (AID 1159567); format: functional, cell-based
Large T antigen = Large T antigen (Simian virus 40, UniProt P03070); format: functional, Betapolyomavirus macacae;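 also: Confirmatory-stage PubChem screen for compounds that inhibit SV40 T antigen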
[12] = target: T3, Rac GTPase-activating protein 1 (Homo sapiens, UniProt Q9H0H5); test: MgcRacGAP GTPase-activating activity inhibitors, confirmation, biochemical, ADP Hunter fluorescence, primary and confirmatory (AID 624330); format: functional
T3 sequence (Q9H0H5 whole entry): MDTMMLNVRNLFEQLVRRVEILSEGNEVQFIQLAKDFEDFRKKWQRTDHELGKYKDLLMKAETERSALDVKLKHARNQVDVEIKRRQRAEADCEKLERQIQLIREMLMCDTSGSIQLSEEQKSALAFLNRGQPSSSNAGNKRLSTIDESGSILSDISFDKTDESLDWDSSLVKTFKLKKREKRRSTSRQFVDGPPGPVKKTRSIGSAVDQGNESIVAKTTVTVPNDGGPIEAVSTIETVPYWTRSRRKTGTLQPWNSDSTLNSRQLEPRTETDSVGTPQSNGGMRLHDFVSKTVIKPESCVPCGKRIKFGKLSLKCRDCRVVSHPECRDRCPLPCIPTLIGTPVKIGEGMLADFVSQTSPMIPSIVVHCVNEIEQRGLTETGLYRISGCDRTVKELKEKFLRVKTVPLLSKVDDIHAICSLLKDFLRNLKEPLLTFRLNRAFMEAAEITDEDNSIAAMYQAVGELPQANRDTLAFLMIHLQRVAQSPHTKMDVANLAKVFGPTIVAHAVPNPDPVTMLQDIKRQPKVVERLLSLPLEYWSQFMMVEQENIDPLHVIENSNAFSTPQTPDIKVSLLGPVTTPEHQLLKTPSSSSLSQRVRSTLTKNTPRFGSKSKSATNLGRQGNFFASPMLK

H9c2 = test: cells; format: functional, cell-based; details: Rattus norvegicus, H9c2, Myocardium;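 also: confirmatory concentration-response retest of ultra-high-throughput screening hits for modulation of myocardial damage; cell death induced by hydrogen peroxide oxidative stress; compound pretreatment for 60 min then peroxide exposure for 2 h; potency is for protecting the cells against peroxide damage rather than for killing them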
[13] = target: T4, Corticotropin-releasing factor receptor 2/Corticotropin-releasing factor-binding protein (Homo sapiens, UniProt P24387+Q13324); test: activators of CRF receptor 2 with binding protein – uHTS hits, confirmation (AID 602473); format: functional; details: read-out: EC50_Mean
T4 sequence (Q13324 whole entry): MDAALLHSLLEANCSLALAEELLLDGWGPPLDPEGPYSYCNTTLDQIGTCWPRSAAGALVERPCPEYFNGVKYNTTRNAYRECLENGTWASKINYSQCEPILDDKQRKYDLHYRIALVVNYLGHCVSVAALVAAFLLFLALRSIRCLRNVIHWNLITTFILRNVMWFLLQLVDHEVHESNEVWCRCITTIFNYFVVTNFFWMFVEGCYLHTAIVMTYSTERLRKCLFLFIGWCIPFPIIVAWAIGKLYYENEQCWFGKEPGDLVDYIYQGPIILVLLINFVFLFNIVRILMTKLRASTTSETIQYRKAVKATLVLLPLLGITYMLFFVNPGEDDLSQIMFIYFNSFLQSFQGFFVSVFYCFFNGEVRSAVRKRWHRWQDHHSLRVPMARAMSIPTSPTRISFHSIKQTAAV
T4 sequence (P24387 whole entry): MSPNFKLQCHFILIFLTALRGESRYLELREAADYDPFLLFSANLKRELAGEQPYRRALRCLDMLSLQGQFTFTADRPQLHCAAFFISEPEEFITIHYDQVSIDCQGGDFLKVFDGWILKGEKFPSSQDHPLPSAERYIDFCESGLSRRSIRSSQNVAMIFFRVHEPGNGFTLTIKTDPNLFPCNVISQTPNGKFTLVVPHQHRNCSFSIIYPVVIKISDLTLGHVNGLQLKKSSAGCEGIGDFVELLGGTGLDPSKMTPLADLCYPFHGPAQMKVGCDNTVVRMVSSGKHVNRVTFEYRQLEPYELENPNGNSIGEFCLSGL

[14] = target: T4, Corticotropin-releasing factor receptor 2/Corticotropin-releasing factor-binding protein; test: Dose Response confirmation of uHTS hits for small molecule antagonists of the CRF-binding protein and CRF-R2 receptor complex.; format: functional; details: read-out: IC50_Mean
Nonstructural protein 1 = Nonstructural protein 1 (Influenza A virus, UniProt Q194T2); format: functional, Influenza A virus (A/California/07/2009(H1N1))
Cytochrome P450 2C9 = Cytochrome P450 2C9 (Homo sapiens, UniProt P11712)

SMILES: NS(=O)(=O)c1ccc(CCNC(=O)c2ccc([N+](=O)[O-])cc2[N+](=O)[O-])cc1
- EC50 [1]: > 120 µM (not active)
- EC50 [2]: > 120 µM (not active)
- EC50 [3]: > 120 µM (not active)

SMILES: Cn1nnnc1Sc1ncnc2scc(-c3ccccc3Cl)c12
- AC50 (Paired box protein Pax-8): 2.42 µM (active)

SMILES: NC1=NC[C@H](Cc2ccccc2)N1CCc1cc(C(F)(F)F)cc(C(F)(F)F)c1
- IC50 [4]: > 20 µM (inactive)

SMILES: CN(C)C(CNC(=O)c1coc2ccccc2c1=O)c1ccccc1 (centres undefined)
- IC50 [4]: > 20 µM (inactive)

SMILES: COc1ccc(C(=O)Cn2c(C(=O)/C=C/c3ccccc3)nc3ccccc32)cc1
- AC50 [5]: 4.47 µM (active)
- EC50 [6]: 4.59 µM (active)
- AC50 [7]: 59.1 µM (active)

SMILES: Cc1ccc2nc(-c3ccc(NC(=O)CCS(=O)(=O)c4ccccc4)cc3)sc2c1
- EC50 [1]: 6.83 µM (active)
- CC50 [8]: 37.3 µM (active)
- EC50 [2]: 6.26 µM (active)

SMILES: CN1CCN(S(=O)(=O)c2ccc(N(C)Cc3ccc(C(F)(F)F)cc3)c([N+](=O)[O-])c2)CC1
- AC50 [5]: 6.3 µM (active)
- AC50 [9]: 17.6 µM (active)
- AC50 [7]: 45.9 µM (active)

SMILES: CC[C@@H](C)[C@@H]1CN([C@@H](C)CN2CCC[C@H]2CN2C(N)=NC[C@H]2CC(C)C)C(=N)N1CCc1ccc(Cl)c(Cl)c1
- IC50 [4]: > 20 µM (inactive)

SMILES: Cc1ccc(OCCCC(=O)Nc2ccccc2C(F)(F)F)cc1
- AC50 (Cytochrome P450 3A4): 15.8 µM (inconclusive)
- IC50 [10]: > 54 µM (not active)

SMILES: Cc1ccc(-c2ccc([C@H]3[C@@H](CO)N4C(=O)CN(C(=O)Nc5cccc(F)c5)C[C@H]34)cc2)cc1
- AC50 [11]: 6.09 µM (active)

SMILES: CCS(=O)(=O)N1CCC2(CC1)CN(Cc1ccc3c(c1)OCO3)[C@H](CO)c1[nH]c3cc(OC)ccc3c12
- AC50 [11]: 5.03 µM (active)

SMILES: C[C@@H]1CN([C@H](C)CO)C(=O)c2c(c3ccccc3n2C)-c2ccccc2CO[C@@H]1CN(C)C(=O)c1cc(Cl)cc(Cl)c1
- AC50 [11]: 3.06 µM (active)

SMILES: Cc1ccc(OCCCC(=O)Nc2ccc(S(=O)(=O)N3CCOCC3)cc2)cc1
- IC50 [4]: > 20 µM (inactive)

SMILES: O=[N+]([O-])c1cccc(S(=O)(=O)N/N=C/c2ccc(O)cc2)c1
- IC50 (Large T antigen): 10.6 µM (active)
- IC50 [12]: 49.5 µM (active)

SMILES: COC(=O)c1ccc(CSc2nc(-c3ccccc3)cs2)o1
- IC50 [10]: 3.49 µM (not active)

SMILES: Cc1c(Br)c(C(=O)NNC(=O)c2ccc(C(C)(C)C)cc2)nn1C
- IC50 [4]: > 20 µM (inactive)

SMILES: COc1ccc(-c2ccc(Nc3ccc(S(=O)(=O)N4CCCC4)cc3)nn2)cc1OC
- AC50 [5]: 20.1 µM (active)
- AC50 [9]: 27.6 µM (active)
- IC50 (H9c2): > 79 µM (inactive)

SMILES: Cc1c(O)c(CN2CCCCC2)cc2c1oc(=O)c1ccccc12
- EC50 [13]: > 53 µM (inactive)
- IC50 [14]: > 47.1 µM (inactive)
- IC50 (H9c2): 6.18 µM (active)

SMILES: Cn1c(=O)cc(OCCCC(=O)NCCN2CCN(c3ccccc3F)CC2)c2ccccc21
- IC50 [4]: > 20 µM (inactive)
- EC50 [13]: > 53 µM (inactive)
- IC50 [14]: > 47.1 µM (inactive)

SMILES: COC(=O)c1[nH]c2ccc(C)cc2c1NC(=O)C1=COCCO1
- EC50 [1]: > 120 µM (not active)
- EC50 [2]: > 120 µM (not active)
- EC50 [3]: > 120 µM (not active)

SMILES: CN(C)c1ccc(NC(=O)CN2CCC(N3CCCCC3)CC2)cc1
- IC50 (Large T antigen): 22.9 µM (active)

SMILES: Cc1cccc(S(=O)(=O)N2C[C@@H]3N[C@H](C2)[C@@H]3c2ccc(-c3cccnc3)cc2)c1
- AC50 [11]: 6 µM (active)

SMILES: CCOC(=O)C1(CCOc2ccccc2)CCN(Cc2ccc(OC)c(COC)c2)CC1
- AC50 [5]: 3.87 µM (active)
- AC50 [9]: 20.5 µM (active)
- AC50 [7]: 32.5 µM (active)

SMILES: O=C(NN=Cc1c(O)ccc2ccccc12)c1ccc[n+](CCO)c1
- IC50 (Nonstructural protein 1): 3.07 µM (active)

SMILES: c1ccc2c(CCN3CCNC[C@H]3Cc3cccc4ccccc34)cccc2c1
- IC50 [4]: > 20 µM (inactive)

SMILES: CCCN(C)C[C@H]1Oc2cc(C#Cc3cccnc3)ccc2S(=O)(=O)N([C@H](C)CO)C[C@H]1C
- AC50 [11]: 3.19 µM (active)

SMILES: Cc1ccc2nc(O)c(N=C(N)S)nc2c1
- AC50 (Cytochrome P450 2C9): 10 µM (inconclusive)
- IC50 [4]: > 20 µM (inactive)

SMILES: N#CC(C#N)=C(N)/C(C#N)=C/c1cc(O)c(O)c(O)c1 [TYRPHOSTIN 51]
- IC50 (Large T antigen): 19.8 µM (active)

SMILES: COc1ccc(C(c2c(O)cc(C)oc2=O)c2c(O)cc(C)oc2=O)cc1
- IC50 [10]: 1.45 µM (not active)

SMILES: Cc1cc(-c2nnc(S)n2/N=C/C=C/c2ccco2)[nH]n1
- IC50 (Large T antigen): 32.1 µM (active)

SMILES: Cn1c(C(=O)NCCOc2ccccc2Cl)cc(=O)n(C)c1=O
- EC50 [1]: > 120 µM (not active)
- EC50 [2]: > 120 µM (not active)
- EC50 [3]: > 120 µM (not active)

SMILES: Cc1ccccc1-c1nnc(S)n1/N=C/C=C/c1ccco1
- IC50 (Large T antigen): 53 µM (active)

SMILES: O=C(COC(=O)Cn1cnc2ccccc21)Nc1ccc2c(c1)C(=O)c1ccccc1C2=O
- IC50 [10]: 6.69 µM (active)

SMILES: COc1cccc(/C=C2/NC(=O)NC2=O)c1OCC(=O)Nc1ccccc1
- EC50 [1]: > 120 µM (not active)
- EC50 [2]: > 120 µM (not active)
- EC50 [3]: > 120 µM (not active)
